From patent publication US9700540B2, “Dronedarone for use in leishmaniasis, formulations and associations for use in leishmaniasis” (SANOFI, priority 2012, dated 2017) come the findings set out here.

The test system of data set [1] is L. major's axenic amastigotes. Kind of data set: Growth inhibition of axenic amastigotes of L. major. Type of data set: cell-based, Leishmania major. As to conditions: 72 hours. The text has this:
(§1) Strains of Leishmania donovani (MHOM/ET/67/HU3) and Leishmania major (MHOM/SU/73/5-ASKH) were used for this study.
(§2) 1/Axenic amastigotes of L. donovani and L. major (isolated parasites)
(§3) The model of axenic amastigotes is cultivated in a medium based on M199 and allows defining the intrinsic activity of a substance on the parasite itself while the model of intramacrophagic amastigotes integrates the capacity of the substance to cross the membrane of the macrophage and that of the phagolysosome.
(§4) The solutions of dronedarone in the DMSO, meglumine antimoniate and miltefosine in the water, were prepared before every experiment. The evaluations in vitro were the object of three independent experiments.
(§5) The assays were realized by quantifying the parasitic DNA with the SYBRGREEN as described by Audisio and al. (Eur. J. Med. Chem., 52: 44-50, 2012).

In data set [2] the test system is axenic amastigotes of L. donovani. Kind of data set: Growth inhibition of axenic amastigotes of L. donovani. Format: cell-based. As to conditions: Leishmania donovani, 72 hours.
Excerpt: as §1, §2, §3, §4, §5

In data set [3] the test system is Axenic amastigotes of L. amazonensis. Kind of data set: Growth inhibition of axenic amastigotes of L. amazonensis (SYBRGREEN DNA quantification). Format: cell-based, Leishmania amazonensis. Particulars: 72 hours of contact. The text has this:
(§6) A strain of Leishmania amazonensis (MHOM/BR/73/M2269) were used. Dronedarone hydrochloride and meglumine antimoniate were supplied by Sanofi. Amphotericin B (désoxycholate) and miltefosine were bought at Sigma-Aldrich.
1/Axenic amastigotes of L. amazonensis (isolated parasites)
(§7) The first cellular model which cultivates in a medium based on M199, allows defining the intrinsic activity of a substance on the parasite itself while the second cellular model integrates the capacity of the substance to cross the membrane of the macrophage and that of the phagolysosome. The used macrophages are cells RAW 264.7, which cultivate in medium based on DMEM with 10% of foetal serum of veal. • Determination of the IC50 of each of the molecules
(§8) Solutions of dronedarone in the DMSO, meglumine antimoniate and miltefosine in the water, and amphotericin B in an isotonic glucose solution (G5) were prepared before every experiment. The evaluations in vitro were the object of three independent experiments duplicate. The assays were realized by quantifying the parasitic DNA with the SYBRGREEN as described by Audisio and al. (Eur. J. Med. Chem., 52: 44-50, 2012) as well as by qPCR for intramacrophagic amastigotes with amplification of the alpha-tubuline of the parasite. The results obtained with both methods are similar.

The test system of data set [4] is Intramacrophagic amastigotes of L. amazonensis. Kind of data set: Growth inhibition of intramacrophagic amastigotes of L. amazonensis in RAW 264.7 (SYBRGREEN, qPCR). Type of data set: cell-based, Leishmania amazonensis.
Excerpt: as §6
2/Intramacrophagic amastigotes of L. amazonensis (parasites hosted in macrophages, as found in dermis, during the cutaneous Leishmaniosis infection).
as §7, §8

Data set [5] has as its system L. major's intramacrophagic amastigotes. Kind of data set: Growth inhibition of intramacrophagic amastigotes of L. major in RAW 264.7. Type of data set: cell-based, Leishmania major.
Excerpt: as §1
(§9) 2/Intramacrophagic amastigotes of L. donovani and L. major (parasites hosted in macrophages, as found in dermis, during the cutaneous Leishmaniosis infection).
as §3
(§10) The used macrophages are cells RAW 264.7, which cultivate in a medium based on DMEM with 10% of foetal serum of veal.
as §4, §5

For data set [6], the system named is intramacrophagic amastigotes of L. donovani. In words: Growth inhibition of intramacrophagic amastigotes of L. donovani in RAW 264.7. Format: cell-based, Leishmania donovani.
Excerpt: as §1, §9, §3, §10, §4, §5

Data set [7] has as its system macrophages (cells RAW 264.7). Kind of data set: Cytotoxicity on macrophages, Blue Trypan. Format: cell-based, human. The procedure:
(§11) Study of the cytotoxicity on macrophages (cells RAW 264.7)
(§12) The non-toxic maximal concentration (CMA) was determined by the technique to the Blue Trypan according to has method described in Audisio and al. (Eur. J. Med. Chem., 52: 44-50, 2012).

In data set [8] the test system is Leishmania amazonensis strains resistant to meglumine antimoniate. In words: Chemosensitivity of L. amazonensis strains resistant to meglumine antimoniate, promastigote form. Format: cell-based. On the procedure: In vitro study on Leishmania amazonensis strains resistant to meglumine antimoniate (Glucantime®)
On Leishmania amazonensis strains resistant to_meglumine antimoniate (IC50=200 mM) under promastigote form, chemosensitivity to dronedarone is similar that one observed on strains that are not resistant to meglumine antimoniate (active principle of Glucantime®).

The nature of data set [9]: Cytotoxicity on macrophages, Blue Trypan. Format: cell-based, human. On the procedure:
as §11, §12

Setting [10] is: Leishmania amazonensis, RAW264.7, RAW 264.7, 72 hours of contact.
Where [11] appears, read: Leishmania major, RAW264.7, 72 hours.
[12] abbreviates: Leishmania donovani, RAW264.7, 72 hours.
Where [13] appears, read: RAW 264.7 macrophages, Blue Trypan.

In the case of `CCCCCCCCCCCCCCCCOP(=O)([O-])OCC[N+](C)(C)C` [miltefosine], the IC50 is 5.57 ± 1.5 µM in [1] (Leishmania major); 13 ± 1.25 µM in [2]; 0.9 ± 0.2 µM in data set [3] (Leishmania amazonensis); 1.87 ± 0.032 µM in data set [4] (setting [10]); 0.72 ± 0.11 µM in data set [5] (setting [11]); 0.88 ± 0.1 µM in data set [6] (setting [12]). The “non-toxic maximal concentration (CMA)” value in data set [7] (human) amounted to 50 µM.
On to meglumine antimoniate, for which the IC50 in data set [1] was greater than 1000 µM; in data set [3], 908 ± 159 µM; in [4] (RAW 264.7, 72 hours of contact), 134 ± 10.4 µM; in [5] (72 hours), 348 ± 79.9 µM; in data set [6] (72 hours), 390 ± 40.5 µM. The “non-toxic maximal concentration (CMA)” value in [7] (setting [13]) is greater than 200 µM.
Turning to `C[C@@H]1[C@H](O)[C@@H](C)/C=C/C=C/C=C/C=C/C=C/C=C/C=C/[C@H](O[C@@H]2O[C@H](C)[C@@H](O)[C@H](N)[C@@H]2O)C[C@@H]2O[C@](O)(C[C@@H](O)C[C@@H](O)[C@H](O)CC[C@@H](O)C[C@@H](O)CC(=O)O[C@H]1C)C[C@H](O)[C@H]2C(=O)O` [amphotericin B], the IC50 in data set [3] worked out at 0.031 ± 0.002 µM; in [4] (RAW 264.7, 72 hours of contact), 0.047 ± 0.005 µM. Further, in data set [7] (setting [13]), the “non-toxic maximal concentration (CMA)” value came out at 6.25 µM.
Turning to `CCCCc1oc2ccc(NS(C)(=O)=O)cc2c1C(=O)c1ccc(OCCCN(CCCC)CCCC)cc1` [dronedarone, 2-n-Butyl-3-[4-(3-di-n-butylaminopropoxy)benzoyl]-5-methylsulphonamidobenzofuran], the IC50 in data set [1] (Leishmania major) is 2.55 ± 0.51 µM; in data set [2], 47.4 ± 6.27 µM; in [3] (Leishmania amazonensis), 0.34 ± 0.06 µM; in [4] (setting [10]) it was 0.5 ± 0.22 µM; in data set [5] (setting [11]), 1.32 ± 0.12 µM; in data set [6] (setting [12]) it was 1.67 ± 0.1 µM. Further, in data set [8], the “chemosensitivity compared with strains not resistant to meglumine antimoniate” value is “similar”. Further, the figures for the “therapeutic index (CC50/IC50)” value in data set [5] and in [6] were greater than 9 and greater than 7, respectively. The compound further returned a CC50 in data set [9] greater than 12.5 µM. Further, the “non-toxic maximal concentration (CMA)” value in [7] (human) is 12.5 µM.
